Results as given in US6066628A, “Non-iron metalloporphyrins and methods of use” (Emory University, priority 1998, dated 2000).
Read-outs that look alike come from different tables or passages of the source.

Experiments:
mice = assay: Preliminary toxicity testing on animals; assay type: in vivo
Experimental: (§1) To test for toxicity of MPs for mammalian cells, semiconfluent monolayers of four cell lines (MRC-5 primary human fibroblasts, Vero cells, MDCK cells and CaCO-2 cells) were incubated for 24 to 48 hours in the presence of 5, 25, 50, 250 and 400 μg/ml of Ga-PPIX dissolved in 0.02 M NaOH.
Two mice were each injected intraperitoneally with 0.5 mg gallium protoporphyrin IX and observed for 7 days. […] The animals were sacrificed, and their internal organs were microscopically examined for signs of inflammation.

Y. enterocolitica [1] = assay: Minimal bactericidal concentration; assay type: cell-based; conditions: reduces plating efficiency more than 99.9%; minimal exposure to light
N. gonorrhoeae = assay: Minimal inhibitory concentration; assay type: cell-based, Neisseria gonorrhoeae; conditions: N. gonorrhoeae MS111; 20 to 24 hours (Table 5)
S. aureus [2] = assay type: cell-based, Staphylococcus aureus
S. crevisieae = assay: Disc diffusion sensitivity test; assay type: cell-based, Saccharomyces cerevisiae; conditions: S. cerevisiae; disc ~50 μg MP
L. monocytogenes = assay: Minimal inhibitory concentration; assay type: cell-based; conditions: 20 to 24 hours (Table 5)
[3] = tested on: methicillin resistant S. aureus IR2419; assay type: cell-based, Staphylococcus aureus; conditions: 1 μg/ml, below the MIC value
N. meningitidis = assay: Disc diffusion sensitivity test; assay type: cell-based; conditions: disc ~50 μg MP
M. smegmatis [4] = assay: Minimal bactericidal concentration; assay type: cell-based, Mycobacterium smegmatis; conditions: reduces plating efficiency more than 99.9%; minimal exposure to light
Y. enterocolitica [5] = assay: Disc diffusion sensitivity test; assay type: cell-based; conditions: disc ~50 μg MP
P. mirabills = assay: Disc diffusion sensitivity test; assay type: cell-based, Proteus mirabilis
B. subtilis = assay: Disc diffusion sensitivity test; assay type: cell-based, Bacillus subtilis; conditions: B. subtilis; disc ~50 μg MP
M tuber. H37Rv = assay: Disc diffusion sensitivity test; assay type: cell-based, Mycobacterium tuberculosis; conditions: disc ~50 μg MP
S. aureus [6] = tested on: S. aureus
M. smegmatis [7] = assay type: cell-based, Mycobacterium smegmatis
S. marcescens = assay: Disc diffusion sensitivity test; assay type: cell-based, Serratia marcescens
Staphylococcus carnosus = assay: Disc diffusion sensitivity test; assay type: cell-based; conditions: 50 μg disc
M. tuberculosis = assay type: cell-based, Mycobacterium tuberculosis
bacteria = assay type: cell-based
S. aureus [8] = assay: Disc diffusion sensitivity test; assay type: cell-based, Staphylococcus aureus
CaCO-2 cells = assay: Toxicity to mammalian cell monolayers; assay type: cell-based; conditions: 5 to 400 μg/ml; 24 to 48 hours
Experimental: as §1

Neisseria meningitidis = assay: Minimal inhibitory concentration; assay type: cell-based
E. coli = assay: Disc diffusion sensitivity test; assay type: cell-based, Escherichia coli
H. pylori ATCC 43504 = assay: Minimal inhibitory concentration; assay type: cell-based, Helicobacter pylori; conditions: H. pylori ATCC 43504 (Table 5)
[9] = tested on: Streptococcus pyogenes JRS4; assay type: cell-based
M tuber. H37Pa = assay: Disc diffusion sensitivity test; assay type: cell-based, Mycobacterium tuberculosis; conditions: disc ~50 μg MP
E. aerogenes = assay: Disc diffusion sensitivity test; assay type: cell-based, Enterobacter aerogenes
Staphylococcus xylolus = assay: Disc diffusion sensitivity test; assay type: cell-based; conditions: 50 μg disc
Vero cells = assay: Toxicity to mammalian cell monolayers; conditions: 0.5 mg in 1 mL DMEM; 24 hrs
Y. pseudotuberculosis = assay type: cell-based
F. menigosepticum = assay: Disc diffusion sensitivity test; assay type: cell-based, Flavobacterium meningosepticum
E. faecalis = assay: Disc diffusion sensitivity test; assay type: cell-based, Enterococcus faecalis; conditions: disc ~50 μg MP; further: key: -: resistant; N: not determined
M. bovis = assay type: cell-based, Mycobacterium bovis; conditions: disc ~50 μg MP
M. smegmatis [10] = assay: Disc diffusion sensitivity test; assay type: cell-based, Mycobacterium smegmatis; conditions: disc ~50 μg MP
Ps. aeruginosa = assay: Disc diffusion sensitivity test; assay type: cell-based, Pseudomonas aeruginosa; conditions: disc ~50 μg MP; further: key: -: resistant; N: not determined
Y. enterocolitica [11] = assay: microbe, parasite or virus in culture; assay type: cell-based

With `C=CC1=C(C)C2=Cc3c(C=C)c(C)c4[n]3[Ga][n]3c(c(C)c(CCC(=O)O)c3=CC3=NC(=C4)C(C)=C3CCC(=O)O)=CC1=N2` [Ga-PPIX, Gallium (III) protoporphyrin IX chloride] the “behavior, eating habits, stress, general condition” value (mice; 0.5 mg intraperitoneally, 7 days) was “No change in behavior, eating habits and/or apparent stress or general condition were recorded”, the “inflammation of internal organs” value (mice; 0.5 mg intraperitoneally, 7 days, microscopy) was “No visible indications of inflammation were observed” and the “peracute or acute effect on health and behavior” value (mice; single intraperitoneal dose of 25 mg/kg) was “does not cause any peracute or acute effect on the health and behavior of mice”. The “Minimal bactericidal concentration (MBC)” value (Y. enterocolitica [1]) was 6.4, the MIC (N. gonorrhoeae) was 0.1 µg/mL and the “MIC in Muller-Hinton broth versus NB broth” value (S. aureus [2]; Muller-Hinton broth) was “did not differ significantly”. The “lower MIC in low iron media” value (S. aureus [2]; NBD with 0.1 mM dipyridyl) was 2 fold, the MIC (S. aureus [2]; S. aureus 8325-4 (Table 4)) was < 0.1 µg/mL and the MIC (S. aureus [2]; S. aureus 8325-4 (Table 6), in µg/mL) was 1-2. For the same compound, the MIC (S. aureus [2]; S. aureus 8325-4, 20 to 24 hours (Table 5)) was 1 to 2 µg/mL, the MIC (S. aureus [2]; S. aureus IR2419, dark (Table 10)) was 1.6 µg/mL and the “Minimal inhibitory concentration (MIC)” value (S. aureus [2]; methicillin-resistant S. aureus IR219, Nutrient broth (Table 2)) was 1.6 µg/mL. The “diameter (mm) of the inhibition zone” value (S. crevisieae) was “-”, the MIC (L. monocytogenes) was 0.2 µg/mL and the “growth in presence of Ga-PPIX” value [3] was “inhibited growth of S. aureus in the first 20 hours of growth”. The “diameter (mm) of the inhibition zone” value (N. meningitidis) was 24 mm, the “Minimal bactericidal concentration (MBC)” value (M. smegmatis [4]) was 10 and the “diameter (mm) of the inhibition zone” value (Y. enterocolitica [5]) was 28 mm. The “diameter (mm) of the inhibition zone” value (P. mirabills; P. mirabilis, disc ~50 μg MP) was 21 mm, the “sensitive strains / strains tested (inhibition zones larger or equal 20 mm)” value (P. mirabills; Proteus mirabilis, 50 μg disc) was 2/2 and the “diameter (mm) of the inhibition zone” value (B. subtilis) was 24 mm. The “diameter (mm) of the inhibition zone” value (M tuber. H37Rv) was 20 mm, the spontaneous resistance (S. aureus [6]) was “did not produce spontaneous resistant mutants” and the “lower MIC in low iron media” value (M. smegmatis [7]; LB+0.2 mM Desferal) was 2 fold. For the same compound, the “antibacterial activity” value (M. smegmatis [7]; M. smegmatis) was “inhibitory”, the MIC (M. smegmatis [7]; M. smegmatis LR222 (Table 4)) was 0.5 µg/mL and the “Minimal inhibitory concentration (MIC)” value (M. smegmatis [7]; M. smegmatis LR222, LB + Tween 80 (Table 2)) was 0.4 µg/mL. The MIC (M. smegmatis [7]; M. smegmatis LR222, dark (Table 10)) was 0.4 µg/mL, the “diameter (mm) of the inhibition zone” value (S. marcescens; S. marcescens, disc ~50 μg MP) was 23 mm and the “sensitive strains / strains tested (inhibition zones larger or equal 20 mm)” value (S. marcescens; Serratia marcescens, 50 μg disc) was 2/3. For the same compound, the “sensitive strains / strains tested (inhibition zones larger or equal 20 mm)” value (Staphylococcus carnosus) was 1/1, the “sensitivity (preliminary experiments)” value (M. avium; M. avium) was “sensitive” and the MIC (M. avium; M. avium ATCC15769 (Table 5)) was 1 µg/mL. The MIC (M. tuberculosis; M. tuberculosis Rv (Table 5)) was 4 µg/mL, the “sensitivity (preliminary experiments)” value (M. tuberculosis; pathogenic M. tuberculosis) was “sensitive” and the “antibacterial activity” value (bacteria) was “widest spectrum and the highest level of antibacterial activity”. For the same compound, the “diameter (mm) of the inhibition zone” value (S. aureus [8]; S. aureus, disc ~50 μg MP) was 22 mm, the “sensitive strains / strains tested (inhibition zones larger or equal 20 mm)” value (S. aureus [8]; Staphylococcus aureus, 50 μg disc) was 9/9 and the “detachment or rounding of cells” value (CaCO-2 cells) was “No detachment or rounding of cells was noticed”. The MIC (Neisseria meningitidis; N. meningitidis IR1072, 20 to 24 hours (Table 5)) was 0.1 µg/mL, the MIC (Neisseria meningitidis; Neisseria meningitidis (Table 4)) was < 0.1 µg/mL and the “diameter (mm) of the inhibition zone” value (E. coli; E. coli, disc ~50 μg MP) was 24 mm. For the same compound, the “sensitive strains / strains tested (inhibition zones larger or equal 20 mm)” value (E. coli; Escherichia coli, 50 μg disc) was 16/18, the MIC (H. pylori ATCC 43504) was 0.2 µg/mL and the sensitivity [9] was “resistant”. The “diameter (mm) of the inhibition zone” value (M tuber. H37Pa) was 36 mm, the “diameter (mm) of the inhibition zone” value (E. aerogenes; E. aerogenes, disc ~50 μg MP) was 22 mm and the “sensitive strains / strains tested (inhibition zones larger or equal 20 mm)” value (E. aerogenes; Enterobacter aerogenes, 50 μg disc) was 1/1. The “sensitive strains / strains tested (inhibition zones larger or equal 20 mm)” value (Staphylococcus xylolus) was 1/1, the “cytotoxic and/or morphological changes” value (Vero cells) was “No visible cytotoxic and/or morphological changes were observed” and the MIC (Y. pseudotuberculosis; Y. pseudotuberculosis YP66 (Table 4)) was < 0.1 µg/mL. The MIC (Y. pseudotuberculosis; Y. pseudotuberculosis YP66 (Table 6), in µg/mL) was 0.2-0.4, the “diameter (mm) of the inhibition zone” value (F. menigosepticum; F. meningosepticum, disc ~50 μg MP) was 22 mm and the “sensitive strains / strains tested (inhibition zones larger or equal 20 mm)” value (F. menigosepticum; Flavobacterium meningosepticum, 50 μg disc) was 1/1. For the same compound, the “diameter (mm) of the inhibition zone” value (E. faecalis) was “-”, the “diameter (mm) of the inhibition zone” value (M. bovis) was 35 mm and the “diameter (mm) of the inhibition zone” value (M. smegmatis [10]) was 25 mm. For the same compound, the “diameter (mm) of the inhibition zone” value (Ps. aeruginosa) was “-”, the “Minimal inhibitory concentration (MIC)” value (Y. enterocolitica [11]) was 0.4 and the “antibacterial activity” value (Y. enterocolitica [11]) was “inhibitory”. The “sensitivity of hemR mutant” value (Y. enterocolitica [11]) was “resistant to relatively high concentrations”, the “sensitivity of hemT, hemU, hemV mutants” value (Y. enterocolitica [11]) was “fully sensitive” and the MIC (Y. enterocolitica [11]; in µg/mL) was 0.4.
